Assay results reported in US20100099109A1, “Methods for Analyzing Drug Response” (NODALITY, INC., A DELAWARE CORPORATION, priority 2008, published 2010).
“Also recorded” adds a separate entry of the source. Like-named read-outs stand apart in the source and are kept apart here.

Columns and labels:
[1] = cited from earlier work
[2] = molecular target: T1, MDR1 drug pump activity in KG-1 cells (Homo sapiens, UniProt P08183); experiment: Functional drug transporter assay (DIOC2(3) efflux); type: cell-based; conditions: Mylotarg resistant KG-1 cells; co-incubation with inhibitor
T1 construct: KG-1 cells are included as a control since they express functional MDR-1; endogenous in cells; host or cells: KG-1 cells
Protocol: (§1) Determination of transporter functional activity: Transporter activity is measured in subpopulations gated for CD45, CD11b, CD34, CD38, and other surface markers including drug transporters themselves. Fluorescent dyes including calcein-acetoxymethyl ester in the presence or absence of inhibitors cyclosporin or PSC-833 for MDR1, reserpine for BCRP-1 and MK571 or probenecid for MRP-1) are used to evaluate the contribution of each transporter to drug efflux
(§2) Cells are thawed, counted and resuspended at 0.222×10^6/ml in RPMI 10% FBS. This example uses 100,000 cells in 450 microliters aliquoted into 6 columns of a 96 well Deep-Well “Cell Plate”. However, the experimental setup is not limited to using 100,000 cells/condition. KG-1 cells are included as a control since they express functional MDR-1.
(§3) 10× Inhibitor or 10× Mock Solutions are prepared by the following protocols: • 10×PSC-833. Stock Conc=2 mM=2000 uM. 10× Conc=20 uM (1:100). • Combine 25 uL stock with 2475 uL DPBS/0.5% BSA • Note Final Conc DMSO=0.1% • Could likely use a range of PSC-833 Concentrations not limited to 2 uM. • This experiment uses Final Concentration of 2 uM • 10×DMSO buffer (mock) • Combine 25 uL DMSO with 2475 uL DPBS/0.5% BSA […]

[3] = tested on: MDR1 drug pump activity in U937 cells; experiment: as above; type: cell-based; conditions: Mylotarg sensitive cell line U937
Protocol: as §1, §2, §3

[4] = tested on: Mylotarg refractory cell lines; experiment: Mylotarg exposure and modulated signaling in resistant cell lines; type: cell-based; conditions: exposed for 5-15 minutes
Protocol: (§4) The experimental measurements included forward and side scatter, the use of viability dyes (amine aqua and propidium iodide (PI)), and determination of cell cycle and apoptosis by measuring DNA content with DRAQ5. Additionally, cell cycle progression was measured by determining levels of cyclin B1, phosphorylated histone H3, and phosphorylated CDK-1. All these determinations were made in freshly thawed as well as in cultured cycling cells.
(§5) After incubation with fluorochrome-conjugated antibody panels that recognized: p-H2AX, p-Chk2, p-ATM, p-53, cleaved PARP and cleaved caspase 3, cells were processed for cytometry as described above.
(§6) Experiments were conducted in which cell lines were exposed for 5-15 minutes to growth factors and cytokines, after which cells were fixed, permeabilized and incubated with panels of fluorochrome-conjugated antibody panels that recognized intracellular signaling molecules. After processing, cells were acquired on the cytometer.

U937 cell line = experiment: Mylotarg/Nocodazole exposure, multiparameter flow cytometry of DNA damage, cell cycle and apoptosis; type: cell-based; conditions: 24 hours exposure
Excerpt: ATM activity also phosphorylates Chk2 and p53. […] Cyclin B1 is produced during the G2 phase of the cell cycle and its accumulation drives the cell cycle into M phase. Therefore, low levels of Cyclin B1 mark G1 and S phases, high levels mark G2 phase, and higher levels mark M phase. Histone H3 (S28) becomes phosphorylated in M phase, making p-Histone H3(S28) a useful marker of cells in M phase and not G2. It is also possible to monitor the G2/M phases of the cell cycle by measuring the phosphorylation status of Cdk1, previously known as Cdc2, a cyclin-dependent protein kinase that controls the cell cycle entry from G2 to M phase. An inhibitory phosphorylation on Cdk1 is removed by CDC25C in the M phase transition, allowing G2 cells to be distinguished from M cells based on levels of p-Cdk1. […] Treating cells with the microtubule polymerization inhibitor Nocodazole induces cells cycle arrest in M phase without DNA damage.
as §4, §5

[5] = tested on: Mylotarg sensitive cell lines; experiment: Mylotarg exposure and modulated signaling in sensitive cell lines; type: cell-based; conditions: exposed for 5-15 minutes
Protocol: as §4, §5, §6

T1 sequence (P08183 whole entry): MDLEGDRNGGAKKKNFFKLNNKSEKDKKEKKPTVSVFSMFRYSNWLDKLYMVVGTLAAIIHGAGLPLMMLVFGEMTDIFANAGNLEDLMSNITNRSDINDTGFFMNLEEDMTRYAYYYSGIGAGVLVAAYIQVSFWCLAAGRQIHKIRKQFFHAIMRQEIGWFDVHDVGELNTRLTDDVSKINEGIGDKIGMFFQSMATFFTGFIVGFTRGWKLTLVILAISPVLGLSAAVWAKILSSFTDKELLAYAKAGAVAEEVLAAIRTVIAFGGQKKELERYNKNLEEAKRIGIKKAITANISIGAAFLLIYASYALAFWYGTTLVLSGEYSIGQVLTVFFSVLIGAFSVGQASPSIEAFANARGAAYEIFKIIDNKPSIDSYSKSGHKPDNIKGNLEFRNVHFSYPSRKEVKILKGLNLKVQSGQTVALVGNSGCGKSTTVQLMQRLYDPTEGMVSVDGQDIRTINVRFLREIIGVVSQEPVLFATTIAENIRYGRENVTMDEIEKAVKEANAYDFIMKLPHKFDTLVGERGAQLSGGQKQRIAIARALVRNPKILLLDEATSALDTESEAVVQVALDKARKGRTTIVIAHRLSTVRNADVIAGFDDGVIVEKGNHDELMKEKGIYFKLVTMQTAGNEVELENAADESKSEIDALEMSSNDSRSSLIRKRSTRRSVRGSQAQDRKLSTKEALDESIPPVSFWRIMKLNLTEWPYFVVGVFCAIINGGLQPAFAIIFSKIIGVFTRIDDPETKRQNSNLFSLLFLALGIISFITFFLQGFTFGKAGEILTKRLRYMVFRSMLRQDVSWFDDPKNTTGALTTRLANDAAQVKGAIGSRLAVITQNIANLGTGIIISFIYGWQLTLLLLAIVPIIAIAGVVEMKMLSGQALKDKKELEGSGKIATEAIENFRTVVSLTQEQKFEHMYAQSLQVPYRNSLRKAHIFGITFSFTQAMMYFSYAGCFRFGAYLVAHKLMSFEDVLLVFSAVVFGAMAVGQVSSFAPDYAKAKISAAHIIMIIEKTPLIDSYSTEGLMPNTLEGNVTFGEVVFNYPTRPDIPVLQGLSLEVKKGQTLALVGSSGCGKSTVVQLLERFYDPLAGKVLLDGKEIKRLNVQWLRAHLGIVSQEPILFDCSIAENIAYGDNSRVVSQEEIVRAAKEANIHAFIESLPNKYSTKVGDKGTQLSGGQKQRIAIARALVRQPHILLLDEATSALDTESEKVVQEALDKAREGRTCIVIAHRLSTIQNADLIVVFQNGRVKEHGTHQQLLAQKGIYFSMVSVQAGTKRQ

COc1cccc2c1C(=O)c1c(O)c3c(c(O)c1C2=O)C[C@@](O)(C(C)=O)C[C@@H]3O[C@H]1C[C@H](N)[C@H](O)[C@H](C)O1 [Daunorubicin]
peak plasma concentration ([1]; 25 mg/m2): 50 ng/mL
peak plasma concentration ([1]; 50 mg/m2): 200 ng/mL

C/C=C/C[C@@H](C)C(=O)[C@H]1C(=O)N[C@@H](C(C)C)C(=O)N(C)CC(=O)N(C)[C@@H](CC(C)C)C(=O)N[C@@H](C(C)C)C(=O)N(C)[C@@H](CC(C)C)C(=O)N[C@@H](C)C(=O)N[C@H](C)C(=O)N(C)[C@@H](CC(C)C)C(=O)N(C)[C@@H](CC(C)C)C(=O)N(C)[C@@H](C(C)C)C(=O)N1C [PSC-833]
effect on MDR1 drug pump activity / intracellular levels of DIOC2(3) [2]: blocked; also recorded: significant increase in intracellular reporter
effect on intracellular levels of DIOC2(3) [3]: no effect

SCF: growth factor/cytokine modulator of PI3K, Ras/Raf pathways
SCF-mediated p-Akt, p-Erk, and p-S6 [4]: increase

CCCCCCCCCCCCCC(=O)O[C@@H]1[C@@H](C)[C@@]2(O)[C@@H](C=C(CO)C[C@]3(O)C(=O)C(C)=C[C@@H]23)[C@@H]2C(C)(C)[C@]12OC(C)=O [PMA, phorbol myristic acetate]
PMA-mediated p-S6 [4]: increase in p-S6

COC(=O)Nc1nc2cc(C(=O)c3cccs3)ccc2[nH]1 [Nocodazole]
cell cycle arrest (Cyclin B1, p-Histone H3(S28), p-Cdk1) (U937 cell line): arrest in M rather than G2

IL-6: cytokine modulator of JAK/STAT pathways
IL-6 mediated p-Stat1 [5]: increased

Nc1ccn([C@@H]2O[C@H](CO)[C@@H](O)[C@@H]2O)c(=O)n1 [Cytarabine]
peak plasma concentration ([1]; high dose, 3 g/m2): 2 µM
peak plasma concentration ([1]; standard dose, 100 mg/m2): approximately 40 nM
